Four compounds from patent US4990518A, “Pharmacologically active heteroaryl substituted imidazo (4,5-c) pyridines” (G. D. Searle & Co., priority 1989, dated 1991) can be followed below.

For orientation: IC50 means the concentration that inhibits the measured activity by half. The term inhibition denotes the percentage by which the read-out fell short of the control.

SMILES strings stand for the structures.

The target of assay [1] is PAF receptor (Human Platelet Membrane Receptors) (Homo sapiens, UniProt P25105).
Protocol: Inhibition of ^3 H-PAF Binding to Human Platelet Membrane Receptors
Receptor Preparation: Ten units of in-dated human packed platelets, each containing 45-65 ml platelet rich-plasma, were purchased from a commercial blood bank. Disposable plasticware was used throughout for receptor preparation. The units were pooled and a 1 ml aliquot was removed for determination of platelet concentration, using a Coulter Counter. […] Protein content was determined by a fluorescamine protein assay.
Assay Methods: Receptor Characterization--Each receptor preparation was evaluated to determine the number of receptor populations, the number of PAF receptor equivalents/mg protein and the dissociation constant (KD) for PAF binding. This required 2-3 experiments in which the protein concentration was held constant and the ^3 H-PAF ligand concentration was varied from approximately 0.10-2.5 nM and the data was analyzed by Scatchard methodology. […]
Assay Methods: Routine Assay of Compounds--The compounds were weighed precisely and solubilized in quantities of DMSO such that a 5 μl aliquot in the incubate would deliver the desired compound concentration. Compounds tested for the first time in this assay were evaluated at a concentration of 50 μM in the incubation medium. […]
In assay [2] the test system is PAF-induced secretion of [^3 H]serotonin-labeled rabbit platelets. Briefly: PAF-induced platelet secretion ([^3 H]serotonin). It is filed as cell-based. To be noted: Oryctolagus cuniculus, washed rabbit platelets, antagonist 60 sec before PAF (0.2 nM to 0.2 μM), read 60 sec after PAF. The procedure: (§1) PAF-induced platelet aggregation and secretion: Washed, [^3 H]serotonin labeled rabbit platelets were prepared as previously described in COX, C. P , J. LINDEN and S. I. SAID: VIP elevates platelet cyclic AMP (cAMP) levels and inhibits in vitro platelet activation induced by platelet-activating factor (PAF). Peptides 5:25-28, 1984, and maintained in an atmosphere of 5% CO2 at 37° C. until used in the bioassay. Aliquots of platelets (2.5×10^8 /ml) were incubated with either an antagonist of PAF or the appropriate vehicle for 60 sec prior to the addition of PAF (0.2 nM to 0.2 μM). Aggregation was continuously monitored on a strip-chart recorder and recorded as the height of the tracing at 60 sec after the addition of PAF. Secretion of [^3 H] serotonin was measured in a sample of the platelet suspension removed at 60 sec after the addition of PAF. The percent inhibition of aggregation and secretion was calculated by comparing antagonist-treated platelets with the appropriate vehicle-treated control platelets. Each combination of antagonist and PAF was repeated using different platelet preparations. IC50 values were determined by inspection of the dose-response curves.

Assay [3] relates to PAF-induced aggregation of washed rabbit platelets. Briefly: PAF-induced platelet aggregation. The format is cell-based. Particulars: Oryctolagus cuniculus, antagonist 60 sec before PAF (0.2 nM to 0.2 μM), read 60 sec after PAF. The procedure: as §1

PAF receptor (Human Platelet Membrane Receptors), sequence (P25105 whole entry): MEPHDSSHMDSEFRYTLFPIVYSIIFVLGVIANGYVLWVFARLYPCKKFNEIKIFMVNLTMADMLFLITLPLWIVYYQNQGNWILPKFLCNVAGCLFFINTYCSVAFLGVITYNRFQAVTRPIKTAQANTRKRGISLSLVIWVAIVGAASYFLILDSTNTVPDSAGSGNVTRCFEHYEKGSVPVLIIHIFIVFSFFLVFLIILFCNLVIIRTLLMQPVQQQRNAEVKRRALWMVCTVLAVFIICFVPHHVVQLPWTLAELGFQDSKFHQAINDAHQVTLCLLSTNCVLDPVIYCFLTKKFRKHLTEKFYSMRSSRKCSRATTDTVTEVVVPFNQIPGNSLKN

In turn, `O=C(c1ccc(Cn2ccc3ncnc-3c2)nc1)N(C1CCCC1)C1CCCC1` [Example 1, N,N-dicyclopentyl-6-(5H-imidazo[4,5-c]pyridin-5-yl-methyl)-3-pyridinecarboxamide] yielded a concentration for half-maximal inhibition (IC50) in assay [1] of 0.88 µM. For `CN(C(=O)c1ccc(Cn2ccc3ncnc-3c2)o1)C1CCCCC1` [Example 2, N-cyclohexyl-5-[(5H-imidazo[4,5-c]pyridin-5-yl)methyl]N-methyl-2-furancarboxamide], the 50% inhibitory concentration (IC50) in assay [2] was 50 µM; in assay [3], roughly 100 µM. On the same counts, the results for `O=C(c1ccc(Cn2ccc3ncnc-3c2)o1)N(C1CCCCC1)C1CCCC1` [Example 3] are 2.8 µM and 10 to 100 µM. For `Cc1nnc2n1-c1ccc(Cl)cc1C(c1ccccc1Cl)=NC2` [Triazolam, triazolam, reference compound], the inhibition at 50 µM in assay [1] (read-out: inhibited ^3 H-PAF binding (triazolam compound inhibition control)) is roughly 50%.
